{"source": "patent US20260007652A1", "about": "“Selective Modulators of AhR-Regulated Transcription and Method for Using Such Modulators to Treat Cancer” (OREGON STATE UNIVERSITY, priority 2022, published 2026)", "key": {"[1]": {"tested_on": "primary human mammary epithelial cells (HMECs) and MCF10A", "assay": "Cell viability, primary human mammary epithelial cells (HMECs) and MCF10A", "assay_type": "cell-based", "settings": "72-hour exposure", "experimental": "(§1) Viability assays were performed by seeding cells at a density of 2000 cells per well in 96-well plates, and the following day, treating with compounds for 48 or 72 hours as indicated. Viability was determined by ATP-based Cell-Titer Glo Viability Assay (Promega, Madison WI). Luminescence was measured using the Tropix TR717 microplate luminometer. Viability of treated cells was determined by relativizing to vehicle (0.1-0.3% DMSO) treated wells. For profiling the activity of Analog 523 against the panel of triple-negative breast cancer cell lines, 72-hour treatments are represented.\nAll cell lines, except for the ST1 and ST2 cells were purchased from ATCC, and maintained in 5% CO2, at 37° C., in DMEM or RPMI media containing 10% FBS, and 1% penicillin/streptomycin. All HCC-cell lines were maintained in RPMI. All MDA-cell lines were maintained in DMEM. ZR-75I cells were maintained in RPMI. SKBR3 cells were maintained in DMEM. MCF10A cells were maintained in DMEM/F12 medium with the following supplements added: 5% horse serum, 20 ng/mL epidermal growth factor, […] hydrocortisone, 100 ng/mL cholera toxin, 10 μg/mL insulin, 1% Pen/Strep. Primary human mammary epithelial cells (HMECs) were obtained from Lonza Biosciences (Basel, Switzerland) and were maintained according to the specified culture protocols in Clonetics™ Mammary Epithelial Basal Medium (Lonza). […]"}, "[2]": {"tested_on": "HCC70 cells", "assay": "Cell viability assay, HCC70 TNBC cells", "assay_type": "cell-based, human", "experimental": "as §1"}, "[3]": {"tested_on": "ST2 cells", "assay": "Cell viability assay, TNBC stem cells ST2", "assay_type": "cell-based", "settings": "Homo sapiens, ST-2; 100 nM; 48 hours", "experimental": "as §1\nST1 and ST2 cells were cultured in Mammary epithelial growth medium (Biowhitakker) (Lonza), with the following supplements: Epidermal growth factor (20 ng/mL) (Sigma), basic fibroblast growth factor (20 ng/mL) (BD Biosciences), Heparin (4 μg/mL) (Sigma), B27 Supplement (Invitrogen), Penicillin/Streptomycin (Omega), Gentamycin (35 μg/mL) (Sigma). Cells were gently passaged with Accutase solution. The isolation and characterization of the ST1 and ST2 lines have been previously described (Strietz et al., 2021)."}, "[4]": {"tested_on": "MDA-MB-468 cells", "assay": "Cell-Titer Glo viability assay, MDA-MB-468 AhR WT and AhR KO cells", "assay_type": "cell-based, human", "experimental": "as §1\nAnalogs of 11-Cl-BBQ were synthesized by Praxis Precision Medicines. Screening was performed using MDA-MB-468 AhR WT and AhR KO cells previously described. Cells were seeded in 10% serum or 2% serum containing media with 1% Pen/Strep at a density of 2000 cell/well in 96-well plates. 20 hours post-seeding, cells were treated with 0.1 μM, 1 μM, or 10 μM of each analog (final DMSO concentration 0.1%-0.2%). After 48 and 72 hours, cells were harvested. The ATP-Based CellTiter Glo Assay kit (Promega, Madison, WI) was used for measuring cell viability."}, "[5]": {"tested_on": "AhR", "assay": "Xenobiotic response element (XRE) driven reporter in Hepa-1 cells, AhR activation", "assay_type": "cell-based, mouse", "settings": "16 hours", "experimental": "FIGS. 69A-69D show representative 11-Cl-BBQ analogs (848 and 849) as non-classical AHR ligands. (A) Stability of AHR protein in the H460 whole cell lysate in the presence or absence of 11-Cl-BBQ (5 μM), PRXS-848 (10 μM), and PRXS-849 (10 μM) at the indicated temperatures; GADPH was used as a loading control. (B) Localization of AHR protein in the H460 treated with 11-Cl-BBQ (100 nM), PRXS-848 (250 nM), PRXS-849 (250 nM), or vehicle control (0.1% DMSO) for two hours; top horizontal panel: AHR protein staining using an AHR-specific antibody conjugated with FITC (green) fluorophore; middle panel: DAPI staining; bottle panel: overlaid images from the top panel and the middle panel in the same column. (C) AHR activation (measured by XRE-luciferase reporter assay in Hepa1 cells) of the parental lead 11-Cl-BBQ and analogs PRXS-848 and PRXS-849 at the indicated concentrations for 16 hours. (D) AHR activation of 11-Cl-BBQ cotreated with a known AHR antagonist CH223191 (1 μM) or 11-Cl-BBQ analogs PRXS-848 and PRXS-849 at the indicated concentrations for 16 hours.\nFIG. 76 presents representative AhR compounds (BBQ analogs) of the invention effective for activation of AhR transcription. Activation values greater than 1 at 100 nM were considered a hit with nanomolar affinity to promote AhR activity and synergize with the identified compounds from the synergy screens. Referring to FIG. 76, Fold@ 1 nM refers to activation of AhR transcription at 1 nM; Fold@100 nM refers to activation of AbR transcription at 100 nM; and Fold rel @ 100 refers to relative activation at 100 nM compared to parental compound, 11-Cl-BBQ. The representative AhR ligand compounds presented in FIG. 76 activate AhR transcription and therefore are useful as anti-cancer agents, either alone or in combination with the synergizing compounds (and chemotherapeutic agents) described herein.\nwas identified as a top hit compound based on its potent (>50% inhibition at 0.1 μM), and selective activity against AhR WT cells versus AhR KO cells (>70% difference between WT and KO cells at 10 μM) (FIG. 11). […] This confirmed Analog 523 activates AhR-mediated transcription and functions as an AhR ligand."}, "[6]": {"settings": "rats; cited from earlier work"}, "[7]": {"tested_on": "HCC1187 cells", "assay": "Cell viability assay, HCC1187 TNBC cells", "assay_type": "cell-based, human", "experimental": "as §1"}, "[8]": {"tested_on": "MDA-MB-468 cells", "assay": "Transcriptional profiling by RNA-Seq, MDA-MB-468 AhR WT cells", "assay_type": "cell-based, human", "settings": "250 nM", "experimental": "MDA-MB-468 AhR WT and AhR KO cells were seeded in 10 cm plates (3.5 million cells/plate) and allowed to attach overnight. The following day, media was replaced with fresh media containing 250 nM of Analog 523 or Vehicle (0.1% DMSO). Treatments were performed in triplicate. At 4 hours and 12 hours post-treatment, samples were harvested by addition of 700 μL of TRK-Lysis buffer and RNA isolation then performed according to the manufacturer's instructions (E.Z.N.A. Total RNA Kit, Omega Bio-Tek, Norcross, GA). Samples were quantified and 260/280 and 260/230 values inspected by NanoDrop. Samples were then sent for quality control, library preparation (poly-A enrichment) and sequencing at Novogene. Sequencing was performed with 150 bp paired-end reads to a depth of 20 million reads […]."}, "[9]": {"tested_on": "SKBR-3 HER2+ breast cancer cells", "assay": "Cell viability assay, SKBR-3 HER2+ breast cancer cells", "assay_type": "cell-based, human", "settings": "72 hours", "experimental": "as §1"}}, "data": [{"smiles": "O=c1c2cccc3cccc(c32)c2nc3ccccc3n12", "note": "[Analog 523, 7H-benzimidazo[2,1-a]benzo[de]isoquinolin-7-one]", "values": [{"measurement": "inhibition of cell viability in normal mammary epithelial cells", "setting": "[1]; 10 μM", "value": "~20", "unit": "%"}, {"measurement": "cytotoxicity in normal mammary epithelial cells", "setting": "[1]; 0.01-10 μM", "value": "did not induce any cytotoxicity"}, {"measurement": "IC50", "setting": "[2]; Homo sapiens, HCC70, 72-hour treatment", "value": 153, "unit": "nM"}, {"measurement": "inhibition (cell viability)", "setting": "[2]; at <0.5 μM, 72 hours", "value": "> 50", "unit": "%"}, {"measurement": "inhibition of cell viability at 0.1 µM", "setting": "[3]", "value": "> 50", "unit": "%"}, {"measurement": "difference between WT and KO cells (cell viability)", "setting": "[4]; 10 μM, AhR WT versus AhR KO", "value": "> 70", "unit": "%"}, {"measurement": "percent inhibition of cell viability at 0.1 µM", "setting": "[4]; Homo sapiens, 0.1 μM, AhR WT MDA-MB-468 cells", "value": "> 50", "unit": "%"}, {"measurement": "IC50", "setting": "[4]; Homo sapiens, MDA-MB-468, 72-hour treatment", "value": 41.2, "unit": "nM"}, {"measurement": "inhibition (cell viability)", "setting": "[4]; at <0.5 μM, 72 hours", "value": "> 50", "unit": "%"}, {"measurement": "receptor activation (XRE reporter)", "setting": "[5]; 100 μM", "value": "~2", "unit": "fold"}, {"measurement": "maximal reporter induction", "setting": "[5]; approximately 100 nM", "value": "10-12 fold"}, {"measurement": "LD50", "setting": "[6]", "value": 660, "unit": "mg/kg"}, {"measurement": "IC50", "setting": "[7]; Homo sapiens, HCC1187, 72-hour treatment", "value": 81.7, "unit": "nM"}, {"measurement": "inhibition (cell viability)", "setting": "[7]; at <0.5 μM, 72 hours", "value": "> 50", "unit": "%"}, {"measurement": "BIK mRNA induction", "setting": "[8]", "value": "~1.5", "unit": "fold"}, {"measurement": "BMF mRNA induction", "setting": "[8]", "value": "4-5 fold"}, {"measurement": "PMA1P1 mRNA induction", "setting": "[8]", "value": "~1.5", "unit": "fold"}, {"measurement": "IER3 mRNA increase", "setting": "[8]; 12 hours", "value": "greater than 6 fold"}, {"measurement": "OSGIN1 mRNA increase", "setting": "[8]; 12 hours", "value": "> 4", "unit": "fold"}, {"measurement": "concentrations at which cell line was sensitive (viability)", "setting": "[9]", "value": "> 1", "unit": "µM"}]}]}
